Reference: ChEMBL document CHEMBL4418281, “Carboxamide inhibitors” (2017)

Tests used:
[1] = target: E3 ubiquitin-protein ligase SMURF2 (Homo sapiens, UniProt Q9HAU4); experiment: Inhibition of SMURF2 (unknown origin) in presence of E1/E2/Ub mix measured after 45 mins by europium-labeled streptavidin based TR-FRET assay
[2] = target: E3 ubiquitin-protein ligase SMURF1 (Homo sapiens, UniProt Q9HCE7); experiment: Inhibition of SMURF1 (unknown origin) in presence of E1/E2/Ub mix measured after 45 mins by europium-labeled streptavidin based TR-FRET assay
Chain of E3 ubiquitin-protein ligase SMURF1 (Q9HCE7 whole entry): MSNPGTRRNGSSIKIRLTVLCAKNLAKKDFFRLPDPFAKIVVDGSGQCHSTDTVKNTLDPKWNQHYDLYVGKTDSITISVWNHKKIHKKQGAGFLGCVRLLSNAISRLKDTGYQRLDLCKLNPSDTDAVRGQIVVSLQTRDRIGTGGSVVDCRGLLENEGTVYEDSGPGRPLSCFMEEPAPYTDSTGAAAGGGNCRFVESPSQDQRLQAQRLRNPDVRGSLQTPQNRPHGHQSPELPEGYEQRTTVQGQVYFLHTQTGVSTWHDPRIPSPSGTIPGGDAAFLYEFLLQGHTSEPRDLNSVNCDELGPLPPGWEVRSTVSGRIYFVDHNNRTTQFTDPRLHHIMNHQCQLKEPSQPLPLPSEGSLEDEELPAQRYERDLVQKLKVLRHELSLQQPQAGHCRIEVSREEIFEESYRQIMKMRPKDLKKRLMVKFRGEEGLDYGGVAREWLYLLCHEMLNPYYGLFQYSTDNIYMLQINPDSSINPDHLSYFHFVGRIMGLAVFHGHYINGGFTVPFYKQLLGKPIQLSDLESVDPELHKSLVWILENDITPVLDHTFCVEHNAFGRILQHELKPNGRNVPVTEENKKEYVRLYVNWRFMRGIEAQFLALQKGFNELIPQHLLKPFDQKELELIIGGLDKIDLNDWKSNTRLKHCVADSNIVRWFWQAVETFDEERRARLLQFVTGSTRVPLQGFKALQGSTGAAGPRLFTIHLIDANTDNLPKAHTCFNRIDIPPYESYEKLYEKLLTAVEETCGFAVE

Chain of E3 ubiquitin-protein ligase SMURF2 (Q9HAU4 whole entry): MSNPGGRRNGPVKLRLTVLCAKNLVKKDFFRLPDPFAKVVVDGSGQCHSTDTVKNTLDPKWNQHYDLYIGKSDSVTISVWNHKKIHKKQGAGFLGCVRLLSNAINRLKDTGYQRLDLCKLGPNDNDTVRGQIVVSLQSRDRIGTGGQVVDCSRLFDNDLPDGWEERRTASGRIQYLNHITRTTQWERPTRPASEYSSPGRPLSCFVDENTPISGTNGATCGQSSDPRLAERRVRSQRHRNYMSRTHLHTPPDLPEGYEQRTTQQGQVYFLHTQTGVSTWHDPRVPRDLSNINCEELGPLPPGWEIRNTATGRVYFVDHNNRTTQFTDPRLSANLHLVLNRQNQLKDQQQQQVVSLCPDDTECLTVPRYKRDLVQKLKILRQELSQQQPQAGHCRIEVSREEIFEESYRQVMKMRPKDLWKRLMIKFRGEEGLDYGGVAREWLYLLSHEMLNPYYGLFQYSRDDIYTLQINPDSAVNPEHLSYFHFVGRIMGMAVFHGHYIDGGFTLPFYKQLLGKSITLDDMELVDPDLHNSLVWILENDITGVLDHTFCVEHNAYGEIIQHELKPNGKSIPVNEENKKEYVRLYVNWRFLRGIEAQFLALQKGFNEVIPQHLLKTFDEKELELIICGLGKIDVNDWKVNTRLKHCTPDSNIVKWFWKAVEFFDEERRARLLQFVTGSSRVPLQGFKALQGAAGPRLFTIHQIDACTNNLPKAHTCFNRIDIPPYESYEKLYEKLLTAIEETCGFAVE

IC50 [1] [µM]	Compound	IC50 [2] [µM]
20	Cc1c(NC(=O)c2noc3c2CCCc2cc(OC(F)(F)F)ccc2-3)c(=O)n(Cc2ccccc2F)n1C	
20	COc1ccc2c(c1)CCCc1c(C(=O)Nc3c(C)n(C)n(Cc4ccc(F)cc4)c3=O)noc1-2	
20	Cc1c(NC(=O)c2noc3c2CCCc2cc(OC(F)(F)F)ccc2-3)c(=O)n(Cc2ccc(F)cc2)n1C	

Compound	IC50 [1] [µM]	IC50 [2] [µM]
Cc1c(NC(=O)c2noc3c2CCCc2cc(CC(C)C)ccc2-3)c(=O)n(-c2ccccc2Cl)n1C	0.74	0.0225
